36 compounds from ChEMBL document CHEMBL4665812, “Targeting Her2-insYVMA with Covalent Inhibitors-A Focused Compound Screening and Structure-Based Design Approach” (J Med Chem, 2020) can be followed below.

Each structure is given as a SMILES string. ≈ marks a conversion by molar mass, not a printed value.

The nature of data set [1]: Apparent permeability across apical side to basolateral side in human Caco-2 cells at 5 uM after 2 hrs by transwell assay. Type of data set: ADME, cell-based. The following applies: read-out: permeability. Background: Caco-2 monolayers are a common model of the intestinal barrier.
Data set [2] in a line: Intrinsic clearance in mouse liver microsomes at 3 uM measured up to 60 mins by LC-MS analysis. The class given is ADME, Microsome. To be noted: read-out: CLH. In general terms: Microsomes from liver hold many membrane-bound enzymes, among them those of drug oxidation.
Data set [3] is described as follows: Intrinsic clearance in human liver microsomes at 3 uM measured up to 50 mins by LC-MS analysis. The class given is ADME, Microsome. The following applies: read-out: CLH.
A short description of data set [4]: Stability of compound in mouse plasma assessed as parent compound remaining at 5 uM measured for 1 hr by LC-MS analysis. Type of data set: ADME, cell-free. The following applies: for remaining at 1 h, 5 µM: read-out: Stabilty.
Data set [5] in a line: Stability of compound in human plasma assessed as parent compound remaining at 5 uM measured for 1 hr by LC-MS analysis. Type of data set: ADME, cell-free. The following applies: read-out: Stabilty.
A short description of data set [6]: Apparent permeability across basolateral side to apical side in human Caco-2 cells at 5 uM after 2 hrs by transwell assay. To be noted: read-out: permeability. The class given is ADME, cell-based.
The nature of data set [7]: Inhibition of HER2-A775_G776insYVMA mutant (unknown origin) expressed in mouse BaF3 cells assessed as reduction in HER2 induced cell viability after 96 hrs by CellTiter-Glo assay. The class given is cell-based. To be noted: BaF3, 96 h. On the technique in general: ATP-based viability assays read luminescence as a measure of living cells.
Another data set is described as follows: cells. The class given is cell-based. To be noted: Homo sapiens, NCI-H1781, 96 h.
For data set [8], the target named is Receptor tyrosine-protein kinase erbB-2 (Homo sapiens, UniProt P04626). The data set can be described thus: Inhibition of C-terminal His6-tagged HER2 (703 to 1029 residues) (unknown origin) expressed in Sf9 insect cells using TK as substrate preincubated for 30 mins followed by substrate addition and measured after 60 mins in presence of XL665-labeled streptavidin by HTRF assay.
Receptor tyrosine-protein kinase erbB-2, sequence (P04626 whole entry, the tested form may be a part): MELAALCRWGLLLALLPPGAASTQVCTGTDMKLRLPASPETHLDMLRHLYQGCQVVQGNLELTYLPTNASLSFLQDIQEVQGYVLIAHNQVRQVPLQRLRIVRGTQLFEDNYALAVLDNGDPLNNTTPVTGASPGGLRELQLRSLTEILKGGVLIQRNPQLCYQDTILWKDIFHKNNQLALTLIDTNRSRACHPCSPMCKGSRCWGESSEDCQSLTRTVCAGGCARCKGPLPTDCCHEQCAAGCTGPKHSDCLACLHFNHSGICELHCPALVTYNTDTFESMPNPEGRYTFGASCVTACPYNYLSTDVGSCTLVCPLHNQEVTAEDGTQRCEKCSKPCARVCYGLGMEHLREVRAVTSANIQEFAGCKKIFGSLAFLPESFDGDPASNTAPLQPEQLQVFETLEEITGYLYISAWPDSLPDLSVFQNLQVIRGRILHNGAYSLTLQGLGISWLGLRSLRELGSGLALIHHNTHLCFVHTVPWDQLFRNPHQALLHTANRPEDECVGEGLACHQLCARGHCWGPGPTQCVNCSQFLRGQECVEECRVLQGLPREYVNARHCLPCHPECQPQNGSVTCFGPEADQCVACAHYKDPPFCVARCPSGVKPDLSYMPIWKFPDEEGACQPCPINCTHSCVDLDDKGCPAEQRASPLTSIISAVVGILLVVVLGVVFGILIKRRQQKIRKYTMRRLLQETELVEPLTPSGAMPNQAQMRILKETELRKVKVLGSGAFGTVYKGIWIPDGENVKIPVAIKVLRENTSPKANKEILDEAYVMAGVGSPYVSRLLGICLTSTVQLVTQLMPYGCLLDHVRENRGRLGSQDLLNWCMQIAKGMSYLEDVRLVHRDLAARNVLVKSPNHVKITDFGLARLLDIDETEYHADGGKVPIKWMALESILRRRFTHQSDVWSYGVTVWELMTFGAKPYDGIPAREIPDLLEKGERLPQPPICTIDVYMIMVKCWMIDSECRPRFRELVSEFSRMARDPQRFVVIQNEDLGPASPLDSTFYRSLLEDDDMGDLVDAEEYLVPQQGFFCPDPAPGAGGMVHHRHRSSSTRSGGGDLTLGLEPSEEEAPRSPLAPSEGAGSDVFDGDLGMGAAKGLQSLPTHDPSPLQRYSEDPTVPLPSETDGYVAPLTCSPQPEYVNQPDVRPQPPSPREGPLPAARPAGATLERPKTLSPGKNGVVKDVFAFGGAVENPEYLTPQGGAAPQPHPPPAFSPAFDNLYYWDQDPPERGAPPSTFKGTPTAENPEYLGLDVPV

Data set [9] in a line: Kinetic solubility of compound in HEPES buffer a pH 7.4 at 500 uM after 90 mins. The class given is physicochemical. The following applies: read-out: Kinetic_solubility.
The nature of data set [10]: Solubility of compound in aqueous buffer at pH 7.4 after 120 mins by turbidometric assay. Type of data set: physicochemical.
The nature of data set [11]: Ratio of apparent permeability across basolateral to apical over apical to basolateral side in human Caco2 cells at 5 uM after 2 hrs by transwell assay. Type of data set: ADME, cell-based. To be noted: Caco-2.

As a reminder, the IC50 is the concentration at which inhibition is half-maximal. Usually efflux ratio stands for a quotient of directional permeabilities that is used to spot active efflux.

Description for cells: Inhibition of HER2-G776delinsVC mutant (unknown origin) expressed in human H1781 cells assessed as reduction in HER2 induced cell viability after 96 hrs by CellTiter-Glo assay

Take `CN(C)C/C=C/C(=O)Nc1cc2c(Nc3ccc(F)c(Cl)c3)ncnc2cc1O[C@H]1CCOC1` [AFATINIB]: in [1], the Papp A→B at 2 h, 5 µM turned out to be 2.38 ×10⁻⁶ cm/s. Further, the results for the microsomal CLint at 3 µM in data set [2] and in data set [3] were 9.4 µL/min/mg and 1.4 µL/min/mg, respectively. In addition, the remaining at 1 h, 5 µM is 101% in [4] and 96.5% in data set [5]. Moreover, the Papp B→A at 2 h, 5 µM in [6] came to 55.4 ×10⁻⁶ cm/s.
`C=CC(=O)Nc1cccc(-c2c(-c3ccc(N4CCN(C)CC4)cc3)[nH]c3ncn(C(C)C)c(=O)c23)c1`: the values for the IC50 (in data set [7]; in “cells”; in data set [8]) were 3600 nM, 2050 nM and 592 nM, respectively.
For `C=CC(=O)Nc1cccc(-c2c[nH]c3ncnc(Nc4ccc(OC(c5ccccc5)c5ccccc5)cc4)c23)c1`, in that order: 497 nM, 6390 nM and 26 nM.
In the same order, the values of `C=CC(=O)Nc1cccc(-c2c(-c3ccc(N4CCN(C)CC4)cc3)[nH]c3ncnc(OC(C)C)c23)c1` are 1440 nM, 1180 nM and 21 nM.
In the same order, the values of `C=CC(=O)Nc1cccc(-c2c(-c3ccc(N4CCN(C)CC4)cc3)[nH]c3ncnc(Nc4ccc(OC(=O)C(c5ccccc5)N5Cc6ccccc6C5=O)cc4)c23)c1` (configuration not stated) are 390 nM, 334 nM and 13 nM.
For the compound `C=CC(=O)Nc1cc(Nc2nccc(-c3cn(C)c4ccccc34)n2)c(OC)cc1N(C)CCN(C)C` [OSIMERTINIB], the IC50 in data set [7] was 1390 nM; in the data set “cells” it was 808 nM.
Consider `C=CC(=O)Nc1cc(-c2c[nH]c3ncnc(Nc4ccc(OCc5ccccn5)c(Cl)c4)c23)ccc1OC(C)COC` (configuration not stated), for which the figures for the IC50 (in [7]; in the data set “cells”; in [8]) were 259 nM, 549 nM and 14 nM, respectively.
As for `C=CC(=O)Nc1cccc(-c2c(-c3ccc(N4CCN(C)CC4)cc3)[nH]c3ncnc(Nc4ccc(OCc5ccccn5)c(Cl)c4)c23)c1`, the IC50 in [7] was found to be 285 nM; in the data set “cells” it was 252 nM; in data set [8], 14 nM.
For `C=CC(=O)Nc1cccc(-c2c(-c3ccc(N4CCN(C)CC4)cc3)[nH]c3ncn(C)c(=O)c23)c1`, in that order: 3300 nM, 1230 nM and 146 nM.
For `C=CC(=O)Nc1cc(-c2c[nH]c3ncnc(Nc4ccc(CN5C(=O)c6ccccc6C5=O)cc4)c23)ccc1OCCO`, in that order: 675 nM, 1610 nM and 15 nM.
For `C=CC(=O)Nc1cccc(-c2c(-c3ccc(N4CCN(C)CC4)cc3)[nH]c3ncnc(OC)c23)c1`, in that order: 910 nM, 357 nM and 50 nM.
Regarding `C=CC(=O)Nc1cccc(-c2c(-c3ccc(N4CCN(C)CC4)cc3)[nH]c3ncnc(Nc4ccc(NC(=O)C(c5ccccc5)N5Cc6ccccc6C5=O)cc4)c23)c1` (configuration not stated), the IC50 is 2680 nM in data set [7], 699 nM in “cells” and 43 nM in data set [8].
For `C=CC(=O)Nc1cccc(-c2c(-c3ccc(N4CCN(C)CC4)cc3)[nH]c3ncnc(Nc4ccc(CN5C(=O)c6ccccc6C5=O)cc4)c23)c1`, in that order: 638 nM, 490 nM and 55 nM.
For the compound `C=CC(=O)Nc1cccc(-c2c[nH]c3ncnc(Nc4ccc5c(cnn5Cc5ccccc5)c4)c23)c1`, the IC50 in data set [7] was 53 nM; in the data set “cells” it was 126 nM; in [8], 12 nM.
For `C=CC(=O)Nc1cccc(-c2c(-c3ccc(N4CCN(C)CC4)cc3)[nH]c3ncn(CC(C)C)c(=O)c23)c1`, in that order: 2420 nM, 988 nM and 321 nM.
For `C=CC(=O)Nc1cc(-c2c[nH]c3ncnc(Nc4ccc(OCc5ccccn5)c(Cl)c4)c23)ccc1OCCCO`, in that order: 41 nM, 271 nM and 9.3 nM.
For `C=CC(=O)Nc1cccc(-c2c[nH]c3ncnc(Nc4ccc(Cc5ccccc5)cc4)c23)c1`, in that order: 754 nM, more than 3000 nM and 29 nM.
On to `C=CC(=O)Nc1cc(-c2c[nH]c3ncnc(Nc4ccc5[nH]c(Cc6ccccc6)nc5c4)c23)ccc1OCCO`, for which the IC50 in [7] was more than 3000 nM; in the data set “cells”, more than 3000 nM; in data set [8], 188 nM.
For `C=CC(=O)Nc1cccc(-c2c[nH]c3ncnc(Nc4ccc(OCN5C(=O)c6ccccc6C5=O)cc4)c23)c1`, the 50% inhibitory concentration (IC50) in [7] worked out at 562 nM; in “cells” it was 383 nM; in [8] it was 4.5 nM.
In the same order, the values of `C=CC(=O)Nc1cccc(-c2c(-c3ccc(N4CCN(C)CC4)cc3)[nH]c3ncnc(Nc4ccc(OCc5cccc(F)c5)c(Cl)c4)c23)c1` are 2220 nM, more than 30000 nM and 95 nM.
As to `CS(=O)(=O)CCNCc1ccc(-c2ccc3ncnc(Nc4ccc(OCc5cccc(F)c5)c(Cl)c4)c3c2)o1` [LAPATINIB], the Papp A→B at 2 h, 5 µM in data set [1] came to 0.7 ×10⁻⁶ cm/s. Further, the microsomal CLint at 3 µM amounted to 73.7 µL/min/mg in data set [2] and 16.7 µL/min/mg in [3]. The remaining at 1 h, 5 µM in [4] was determined as 95.9%; in data set [5], 99.7%. In addition, the solubility kinetic at 1.5 h, 500 µM in data set [9] was 4.1 µM (≈ 2.38 µg/mL). The same compound yielded a solubility kinetic at 2 h in data set [10] of 3 µM (≈ 1.74 µg/mL). In addition, the IC50 in [7] worked out at 2760 nM; in the data set “cells” it was 3940 nM. Moreover, the Papp B→A at 2 h, 5 µM in data set [6] was determined as 0.2 ×10⁻⁶ cm/s.
As to `C=CC(=O)Nc1cccc(-c2c(-c3ccc(N4CCN(C)CC4)cc3)[nH]c3ncnc(OCC(C)C)c23)c1`, the values for the IC50 (in data set [7]; in the data set “cells”; in data set [8]) were 1120 nM, 2310 nM and 26 nM, respectively.
For `C=CC(=O)Nc1cccc(-c2c(-c3ccc(N4CCN(C)CC4)cc3)[nH]c3ncn(CC)c(=O)c23)c1`, in that order: 2810 nM, 2340 nM and 84 nM.
For `COc1cc2ncnc(Nc3ccc(F)c(Cl)c3)c2cc1OCCCN1CCOCC1` [GEFITINIB], the IC50 in data set [7] is 2880 nM.
As for `C=CC(=O)Nc1cccc(-c2c(-c3ccc(N4CCN(C)CC4)cc3)[nH]c3ncnc(Nc4ccc(O)cc4)c23)c1`, the IC50 was found to be 431 nM in data set [7], 165 nM in the data set “cells” and 3.9 nM in data set [8].
Turning to `C=CC(=O)N1CCC(Oc2cc3c(Nc4ccc(Cl)c(Cl)c4F)ncnc3cc2OC)CC1` [POZIOTINIB], the efflux ratio at 2 h, 5 µM in [11] amounted to 0.36. Besides, the Papp A→B at 2 h, 5 µM in data set [1] was 21.1 ×10⁻⁶ cm/s. In addition, the microsomal CLint at 3 µM in data set [2] came to 35.4 µL/min/mg; in [3] it was 22 µL/min/mg. The Stabilty in data set [4] (1 h, 5 µM) is 120.4%. For the same compound, in [5], the remaining at 1 h, 5 µM was 86.9%. The solubility kinetic at 1.5 h, 500 µM in data set [9] is 39.3 µM (≈ 19.3 µg/mL). The IC50 in data set [7] is less than 14 nM; in “cells”, 105 nM; in [8] it was 12 nM. The Papp B→A at 2 h, 5 µM in data set [6] worked out at 7.5 ×10⁻⁶ cm/s.
On to `C=CC(=O)Nc1cccc(-c2c[nH]c3ncnc(Nc4ccc(OCc5cccc(F)c5)c(Cl)c4)c23)c1`, for which the IC50 worked out at 135 nM in data set [7], 305 nM in the data set “cells” and 14 nM in [8].
In the same order, the values of `C=CC(=O)Nc1cccc(-c2c[nH]c3ncnc(Nc4ccc5c(ccn5Cc5ccccc5)c4)c23)c1` are 304 nM, 332 nM and 7.9 nM.
For the compound `C=CC(=O)Nc1cccc(-c2c(-c3ccc(N4CCN(C)CC4)cc3)[nH]c3ncnc(OCC)c23)c1`, the 50% inhibitory concentration (IC50) was 327 nM in data set [7], 417 nM in “cells” and 14 nM in data set [8].
For `C=CC(=O)Nc1cc(-c2c[nH]c3ncnc(Nc4ccc(CN5C(=O)c6ccccc6C5=O)cc4)c23)ccc1OCCN(C)C`, in that order: 621 nM, 1200 nM and 23 nM.
In the same order, the values of `C=CC(=O)Nc1cccc(-c2c[nH]c3ncnc(Nc4ccc5[nH]c(Cc6ccccc6)nc5c4)c23)c1` are 349 nM, 193 nM and 3.5 nM.
As to `CC(C)(O)CC(=O)NCCn1ccc2ncnc(Nc3ccc(Oc4cccc(C(F)(F)F)c4)c(Cl)c3)c21` [TAK-285], the figures for the IC50 (in data set [7]; in “cells”) were 3220 nM and 3980 nM, respectively.
On to `C=CC(=O)Nc1cccc(-c2c[nH]c3ncnc(Nc4ccc(Oc5ccccc5)cc4)c23)c1`, for which the 50% inhibitory concentration (IC50) in data set [7] is more than 3000 nM; in “cells” it was more than 3000 nM; in data set [8], 13 nM.
For the compound `C=CC(=O)Nc1cccc(-c2c(-c3ccc(N4CCN(C)CC4)cc3)[nH]c3ncnc(Nc4ccc(OC(c5ccccc5)c5ccccc5)cc4)c23)c1`, the IC50 in data set [7] is more than 3000 nM; in the data set “cells”, 2630 nM; in data set [8], 4.5 nM.
As to `C=CC(=O)Nc1cc(-c2c[nH]c3ncnc(Nc4ccc(OCc5ccccn5)c(Cl)c4)c23)ccc1OCCO`, the IC50 in data set [7] came to 84 nM; in “cells”, 201 nM; in data set [8] it was 1.9 nM.
For `C=CC(=O)Nc1cccc(-c2c(-c3ccc(N4CCN(C)CC4)cc3)[nH]c3ncnc(Nc4ccc(OCN5C(=O)c6ccccc6C5=O)cc4)c23)c1`, in that order: 411 nM, 264 nM and 12 nM.
